Here are results for 5 compounds from patent EP0913397B1, “A proces for the synthesis of 1-(4-Arylpiperazine-1-y1)-3-(2-oxypyrrolidin/piperidin-1-yl)propanes as therapeutic agents for hypertension, ischemia, cardiovascular and other adrenergic receptors related disorders” (COUNCIL OF SCIENTIFIC AND INDUSTRIAL RESEARCH, priority 1997, dated 1999).

A value given as a limit tells only on which side of the number the result lay.

Test [1] has as its system anaesthetized (pentobarbitone sodium 35 mg/kg i.v.) cat. The test is described as follows: Effect on blood pressure and adrenaline vasopressure response in anaesthetized cat (Table 2). The test is classed as in vivo. On the procedure:
Table 2: Effect on blood pressure, heart rate and adrenaline vasopressure response at an anaesthetized (pentobarbitone sodium 35 mg/kg i.v.) cat.
(§1) • (a) Cats (2.6-4.0 kg) of either sex anaesthetized with pentobarbitone sodium ([…] i.v.) and showing basal mean arterial blood pressure below 150 mm (Hg) were categorised as normotensive and above 150 mm Hg as hypertensive. Arterial blood pressure (BP) was recorded from one of the carotid artery through a stathum P23 DC pressure transducer and 7P1 low level DC preamplifier on a Grass Model P7 Polygraph, Signals from 7P 1 preamplifier were used to trigger 7P4 Tachograph preamplifier for recording the heart rate (HR). Right femoral vein and Trachea were cannulated for intravenous injections and artificial ventilation respectively. Control responses to intravenous injection of noradrenaline (2-4 ug); acetyl choline (1-2 ug); histamine (1-2 ug) and isoprenaline (1-2 ug) were taken before and after the administration of test doses of each compounds.

The next test relates to Normotensive cat. The test is described as follows: Effect on blood pressure, heart rate and adrenaline vasopressor response, anaesthetized normotensive cat. The test is classed as in vivo. The conditions noted are these: 10 uMol/kg i.d. On the procedure:
(§2) 2. Effect on blood pressure, heart rate and adrenaline vasopressor response of anaesthetized (pentobarbitone sodium 40 & 60 mg/kg i.p. in cat and rat respectively) normotensive & hypertensive rat & cat model preparations.
as §1

The subject of test [2] is Hypertensive rat model preparation. The test is described as follows: Effect on blood pressure, heart rate and adrenaline vasopressor response, anaesthetized hypertensive rat model preparation. Type of test: in vivo. On the procedure:
as §2, §1

The next test concerns Isolated aortic strip. The test is described as follows: Isolated aortic strip, endothelin induced contraction.
The subject of test [3] is Isolated Guinea pig ileum preparation. The test is described as follows: Isolated Guinea pig ileum preparation, antihistaminic activity. The conditions noted are these: 0.5-5.0 ug/ml.
Test [4] deals with histamine induced bronchoconstriction. The test is described as follows: Konzett and Rossler preparation.
In test [5] the test system is Rat aortic ring preparation. The test is described as follows: Rat aortic ring preparation, NE induced contraction.
Another test deals with cat. The test is described as follows: In vivo drug antagonism studies in cat. The conditions noted are these: 2 uMol dose i.v. in cat.
The subject of test [6] is Langendorff perfused rat heart preparation. The test is described as follows: Cardioprotective activity, Langendorff perfused rat heart, prolonged period of ischemic insult. As to the method:
Further, in Langendorff perfused rat heart preparation subjected to even up to 90 min. global ischemia, the compound at 0.001 ug/ml conc. given at the time of reperfusion revived normal rhythmic contraction started within 2 min. (Table 1) and incidence of reperfusion induced arrhythmia were abolished. Table 1: Compound administered at the time reperfusion at the dose of 0.001 ug/ml on prolong period (90min.) of ischemic insult.
The rats were killed by decapitation, heart were rapidly excised and placed in ice-cold HEPES tyrode buffer. Then isolated hearts were perfused retrogradely through coronary arteries using the Langendorff technique. The perfusion buffer consisted (in mM) NaCl 137, KCl 5.4, CaCl2 1.8, MgCl 2 1.0, glucose 11.2 and HEPES 3.0. The buffer (pH 7.4) was continuously gassed with oxygen and maintained at 37°C. Coronary flow rate was maintained at 10 ml/min. The heart contracted spontaneously. The perfused heart was allowed to equilibrate for 30 min. before initiation of any insult protocol. The test compounds were given at the time of reperfusion. Some of the compounds were dissolved in ethanol. Final concentration of ethanol in the perfusion buffer was 0.0001% and had no effect of its own on the parameter used. • (a) For brief period of ischemic insult (Hideo et al. Pathophysiology and pathogenesis of stunned myocardium. J. Clin. Invest., 79, 950-961, 1987). Ischemia was initiated by stopping the flow for 16 min. followed by 30 min. reperfusion period. The durations were decided on the initial pilot experiments leading to 50% recovery of function. • (b) For prolong period of ischemic insult (Becker, L.C. & Ambrosio, G. Myocardial consequences of reperfusion Prog. Cardiovas. Dis., 30, 23-44, 1987). Ischemia was initiated by stopping the flow for […] by 30 min. reperfusion.

Where [7] appears, read: 0.001 ug/ml given at the time of reperfusion, up to 90 min. global ischemia.

Regarding `CCc1ccccc1N1CCN(CCCN2CCCCC2=O)CC1` [Ar=C6H4-2-C2H5, n=2, 1-[4-(Z-ethylphenyll)piperazin-1-yl]-3-[2-oxopiperidin-1-yl]propane], in test [1] (2.0 umol/kg i.v.), the “B. P. fall %” value is 35% and the Dur. is 55 min. In [1] (10.0 umol/kg i.v.), the “Adrenaline vasopressure response % inhibition” value is given as “R (R=Reversal)”, the “B. P. fall %” value came out at 20% and the Dur. came to 63 min.
Take `O=C1CCCCN1CCCN1CCN(c2cccc(C(F)(F)F)c2)CC1` [Ar=C6H4-3-CF3, n=2, 1-[4-(3-trifluoromethylphenyl)piperazin-1-yl]-3-[2-oxopiperidin-1-yl]propane]: the Dur. result in test [1] (10.0 umol/kg i.v.) is reported as “Tr”.
As to `CCc1ccc(N2CCN(CCCN3CCCC3=O)CC2)cc1` [Ar=C6H4-4-C2H5, n=1, 1-[4-(4-ethylphenyl)piperazin-1-yl]-3-[2-oxopyrrolidin-1-yl]propane], the Dur. entry in [1] (2.0 umol/kg i.v.) is recorded as “Tr”.
As for `O=C1CCCN1CCCN1CCN(c2ccc(F)cc2)CC1` [Ar=C6H4-4-F, n=1, 1-[4-(4-fluorophenyl)piperazin-1-yl]-3-[2-oxopyrrolidin-1-yl]propane], the Heart rate Pre/post treatment (post) in the test on Normotensive cat (post treatment) was determined as 170 beats/min; in [2] (5 uMol/kg i.d.), 320 beats/min; in test [2] (10 uMol/kg i.d.) it was 340 beats/min. Further, the Heart rate Pre/post treatment (pre) in the test on Normotensive cat (pre treatment) came out at 200 beats/min; in test [2] (20 uMol/kg i.d., pre treatment), 310 beats/min. Moreover, the Endothelin induced contraction result in the test on Isolated aortic strip is “inhibited significantly”. Also, the “Response to endothelin after washing the preparation” value with Isolated aortic strip (after washing) is listed as “relaxation rather than contraction”. Besides, the antihistaminic activity entry in [3] is listed as “significant antihistaminic activity”. Moreover, in test [4], the “antihistaminic activity against histamine induced bronchoconstriction” value was “some antihistaminic activity”. The NE induced contraction entry in test [5] is on record as “inhibited”. Moreover, in the test with cat (glibenclamide pretreatment), the “reduction of the fall in blood pressure” value was “only partially reduced”. For the same compound, in the test with cat (pretreatment with Dup-753), the “reduction of antihypertensive effect” value is recorded as 33%. For the same compound, the “alteration of antihypertensive effect” value in the test on cat (pretreatment with atropine sulphate), with cat (pretreatment with mepyramine maleate), in the test on cat (pretreatment with propranolol) and in the test on cat (pretreatment with yohimbine) was “failed to alter” throughout. Besides, in test [6] (setting [7]), the “incidence of reperfusion induced arrhythmia” value is “abolished”. Besides, in [6] (setting [7]), the “time to start of normal rhythmic contraction” value was not above 2 min.
For `COC(=O)C1=C(C)NC(C)=C(C(=O)OC)C1c1ccccc1[N+](=O)[O-]` [Nifedipine, reference compound], in [6] (10^-6M, ischemic insult 45 min.), the Onset is 2.5 min.
